Data as given in patent US20200399222A1, “PICOLINAMIDES AS FUNGICIDES” (Dow AgroSciences LLC, priority 2018, published 2020).
Where two headings read alike, the source gives them in different places.

Legend:
Puccinia triticina = assay: Wheat brown rust (PUCCRT) disease control on wheat seedlings; format: in vivo; details: High volume application, 100 ppm
Description: Technical grades of materials were dissolved in acetone, which were then mixed with nine volumes of water containing 110 ppm Triton X-100. The fungicide solutions were applied onto wheat seedlings using an automated booth sprayer to run-off. All sprayed plants were allowed to air dry prior to further handling. All fungicides were evaluated using the aforementioned method for their activity vs. all target diseases, unless stated otherwise. Wheat leaf blotch and brown rust activity were also evaluated using track spray applications, in which case the fungicides were formulated as EC formulations, containing 0.1% Trycol 5941 in the spray solutions. Example B: Evaluation of Fungicidal Activity: Wheat Brown Rust (Puccinia triticina; Synonym: Puccinia recondita f. sp. tritici; Bayer Code PUCCRT) Wheat plants (variety Yuma) were grown from seed in a greenhouse in 50% mineral soil/50% soil-less Metro mix until the first leaf was fully emerged, with 7-10 seedlings per pot. These plants were inoculated with an aqueous spore suspension of Puccinia triticina either prior to or after fungicide treatments. After inoculation the plants were kept in a dark dew room at 22° C. with 100% relative humidity overnight to permit spores to germinate and infect the leaf. The plants were then transferred to a greenhouse set at 24° C. for disease to develop. Fungicide formulation, application and disease assessment followed the procedures as described in the Example A.

Zymoseptoria tritici = assay: Leaf blotch of wheat (SEPTTR) disease control on wheat seedlings; format: in vivo; details: High volume application, 100 ppm
Description: Example A: Evaluation of Fungicidal Activity: Leaf Blotch of Wheat (Zymoseptoria tritici; Bayer Code […]) Technical grades of materials were dissolved in acetone, which were then mixed with nine volumes of water containing 110 ppm Triton X-100. The fungicide solutions were applied onto wheat seedlings using an automated booth sprayer to run-off. All sprayed plants were allowed to air dry prior to further handling. All fungicides were evaluated using the aforementioned method for their activity vs. all target diseases, unless stated otherwise. Wheat leaf blotch and brown rust activity were also evaluated using track spray applications, in which case the fungicides were formulated as EC formulations, containing 0.1% Trycol 5941 in the spray solutions. Wheat plants (variety Yuma) were grown from seed in a greenhouse in 50% mineral soil/50% soil-less Metro mix until the first leaf was fully emerged, with 7-10 seedlings per pot. These plants were inoculated with an aqueous spore suspension of Zymoseptoria tritici either prior to or after fungicide treatments. After inoculation the plants were kept in 100% relative humidity (one day in a dark dew chamber followed by two to three days in a lighted dew chamber at 20° C.) to permit spores to germinate and infect the leaf. The plants were then transferred to a greenhouse set at 20° C. for disease to develop. When disease symptoms were fully expressed on the 1st leaves of untreated plants, infection levels were assessed on a scale of 0 to 100 percent disease severity. Percent disease control was calculated using the ratio of disease severity on treated plants relative to untreated plants.

[1] = 24 h, 1 Day Protectant, read-out: PUCCRT disease control rating, 1DP
[2] = 72 h, 3 Day Curative, read-out: PUCCRT disease control rating, 3DC
[3] = 24 h, 1 Day Protectant, read-out: SEPTTR disease control rating, 1DP
[4] = 72 h, 3 Day Curative, read-out: SEPTTR disease control rating, 3DC

| Compound | pest or weed control at 100 ppm (Puccinia triticina; [1]) [%] | pest or weed control at 100 ppm (Puccinia triticina; [2]) [%] | pest or weed control at 100 ppm (Zymoseptoria tritici; [3]) [%] | pest or weed control at 100 ppm (Zymoseptoria tritici; [4]) [%] |
| --- | --- | --- | --- | --- |
| COc1ccc([C@H](C)[C@H](C)OC(=O)[C@@H](C)NC(=O)c2nccc(OC)c2O)c(C)c1 [Example 152] | > 80 | < 80 | < 80 | < 80 |
| COc1ccnc(C(=O)N[C@H](C(=O)O[C@@H](C)[C@H](C)c2ccc(F)cc2C)C(C)C)c1O [Example 139] | < 80 | < 0 | < 80 | < 80 |
| COc1ccnc(C(=O)NCC(=O)O[C@@H](C)[C@H](C)c2ccc(F)cc2C)c1O [Example 119] | > 80 | < 80 | < 0 | < 80 |
| COc1ccnc(C(=O)N[C@@H](C)C(=O)O[C@H](C)[C@@H](C)c2ccc(F)cc2C)c1O [Example 134] | < 80 | < 80 | < 80 | < 80 |
| COc1ccnc(C(=O)N[C@@H](C)C(=O)O[C@H](C)[C@@H](C)c2ccccc2C)c1O [Example 135] | < 80 | < 80 | < 80 | < 80 |
| COc1ccnc(C(=O)N[C@@H](C)C(=O)O[C@@H](C)[C@@H](C)c2c(C)cccc2C)c1O [Example 166] | > 80 | > 80 | > 80 | > 80 |
| COc1ccnc(C(=O)N[C@@H](C)C(=O)O[C@@H](C)[C@@H](C)c2ccc(F)cc2)c1O [Example 131] | > 80 | > 80 | < 80 | < 80 |
| COc1cc(F)ccc1[C@@H](C)[C@@H](C)OC(=O)[C@H](C)NC(=O)c1nccc(OC)c1O [Example 173] | > 80 | < 80 | < 80 | < 80 |
| COc1ccnc(C(=O)N[C@H](C)C(=O)O[C@@H](C)[C@@H](C)c2ccc(F)cc2)c1O [Example 151] | < 80 | < 0 | < 80 | < 80 |
| COc1ccnc(C(=O)N[C@@H](C)C(=O)O[C@@H](C)[C@@H](C)c2c(C)cc(F)cc2C)c1O [Example 167] | > 80 | > 80 | > 80 | > 80 |
| COc1ccnc(C(=O)N[C@H](C(=O)O[C@@H](C)[C@@H](C)c2ccc(F)cc2)C(C)C)c1O [Example 141] | > 80 | < 80 | > 80 | < 80 |
| COc1ccnc(C(=O)N[C@@H](C)C(=O)O[C@@H](C)[C@@H](C)c2ccc(N(C)C)cc2)c1O [Example 176] | > 80 | < 80 | < 0 | < 80 |
| COc1ccnc(C(=S)N[C@@H](C)C(=O)O[C@@H](C)[C@@H](C)c2ccccc2C(F)(F)F)c1O [Example 267] | > 80 | < 80 | < 80 | < 80 |
| COc1ccc([C@H](C)[C@H](C)OC(=O)[C@H](C)NC(=O)c2nccc(OC)c2O)c(C)c1 [Example 132] | > 80 | > 80 | > 80 | < 80 |
| COc1ccnc(C(=O)N[C@@H](C)C(=O)O[C@H](C)[C@H](C)c2ccc(F)cc2C(F)(F)F)c1O [Example 162] | < 0 | < 0 | < 80 | < 80 |
| COc1ccnc(C(=O)N[C@H](C(=O)O[C@@H](C)[C@H](C)c2ccccc2C)C(C)C)c1O [Example 140] | > 80 | < 80 | < 80 | < 80 |

| Compound | pest or weed control at 100 ppm (Puccinia triticina; [1]) [%] | pest or weed control at 100 ppm (Puccinia triticina; [2]) [%] | pest or weed control at 100 ppm (Zymoseptoria tritici; [3]) [%] | pest or weed control at 100 ppm (Zymoseptoria tritici; [4]) [%] |
| --- | --- | --- | --- | --- |
| COc1ccc([C@@H](C)[C@@H](C)OC(=O)[C@@H](NC(=O)c2nccc(OC)c2O)C(C)C)c(C)c1 [Example 147] | > 80 | < 80 | > 80 | < 80 |
| COc1ccnc(C(=O)N[C@@H](C)C(=O)O[C@H](C)[C@H](C)c2ccccc2C(F)(F)F)c1O [Example 161] | < 0 | < 0 | < 80 | < 80 |
| COc1ccnc(C(=O)N[C@H](C(=O)O[C@@H](C)[C@@H](C)c2ccc(F)cc2C)C(C)C)c1O [Example 138] | > 80 | > 80 | > 80 | < 80 |
| COc1ccnc(C(=O)N[C@H](C)C(=O)O[C@H](C)[C@H](C)c2ccc(F)cc2)c1O [Example 156] | < 0 | < 80 | < 80 | < 80 |
| COc1ccnc(C(=O)NCC(=O)O[C@@H](C)[C@H](C)c2ccccc2C)c1O [Example 120] | < 80 | < 80 | < 0 | < 80 |
| COc1ccnc(C(=O)N[C@@H](C)C(=O)O[C@@H](C)[C@@H](C)C2CCCC2)c1O [Example 160] | < 80 | > 80 | < 80 | < 80 |
| COc1ccnc(C(=O)NCC(=O)O[C@@H](C)[C@@H](C)c2ccc(F)cc2)c1O [Example 121] | > 80 | > 80 | < 0 | < 80 |
| COc1ccc([C@@H](C)[C@@H](C)OC(=O)[C@@H](C)NC(=O)c2nccc(OC)c2O)c(C)c1 [Example 157] | < 80 | < 0 | < 80 | < 80 |
| COc1ccnc(C(=O)N[C@H](C)C(=O)O[C@H](C)[C@@H](C)c2ccc(F)cc2C)c1O [Example 154] | < 0 | < 0 | < 80 | < 80 |
| COc1ccnc(C(=O)N[C@@H](C)C(=O)O[C@@H](C)[C@H](C)c2ccc(F)cc2C)c1O [Example 129] | > 80 | < 80 | < 80 | < 80 |
| COc1ccnc(C(=S)N[C@@H](C)C(=O)O[C@@H](C)[C@@H](C)C2CCCC2)c1O [Example 269] | < 80 | > 80 | < 80 | < 80 |
| COc1ccnc(C(=O)N[C@@H](C)C(=O)O[C@@H](C)[C@@H](C)c2ccccc2)c1O [Example 171] | > 80 | > 80 | < 80 | < 80 |
| COc1ccnc(C(=O)N[C@H](C(=O)O[C@H](C)[C@@H](C)c2ccc(F)cc2C)C(C)C)c1O [Example 144] | < 0 | < 80 | < 80 | < 80 |
| COc1ccnc(C(=O)N[C@@H](C)C(=O)O[C@H](C)[C@H](C)c2c(C)cccc2C)c1O [Example 168] | > 80 | > 80 | < 80 | > 80 |
| COc1ccnc(C(=O)N[C@H](C)C(=O)O[C@H](C)[C@@H](C)c2ccccc2C)c1O [Example 155] | < 80 | < 80 | < 80 | < 80 |
